Molecular target: T1, B1R receptor of the rat (rB1R) (Rattus norvegicus, UniProt P97583)
T1 construct: expressed in transfected cells; host or cells: CHO K1 cells (Chinese hamster ovary), stably transfected
T1 sequence (P97583 1-337): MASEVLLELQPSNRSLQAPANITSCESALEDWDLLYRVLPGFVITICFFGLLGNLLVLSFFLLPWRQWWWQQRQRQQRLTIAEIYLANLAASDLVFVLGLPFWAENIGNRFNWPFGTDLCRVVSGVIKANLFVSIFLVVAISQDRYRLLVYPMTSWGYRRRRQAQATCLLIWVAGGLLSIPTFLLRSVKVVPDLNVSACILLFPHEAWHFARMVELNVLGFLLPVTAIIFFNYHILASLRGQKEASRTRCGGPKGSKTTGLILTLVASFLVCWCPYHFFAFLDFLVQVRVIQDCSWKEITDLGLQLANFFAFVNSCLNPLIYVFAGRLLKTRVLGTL
Experiment: Functional FLIPR Ca2+ assay on the bradykinin 1 receptor, rat (rB1R CHO K1 cells)
Assay type: cell-based
Settings: test substance 10 μM; CHO K1 cells transfected with rat B1R gene; agonist Des-Arg9-bradykinin at EC80; % inhibition compared with maximum achievable inhibition; read-out: B1R antagonism, rat [10 μM] % inhibition
Protocol: The agonistic or antagonistic action of substances can be quantified on the bradykinin 1 receptor (B1R) of the human and rat species with ectopically expressing cell lines (CHO K1 cells) and with the aid of a Ca^2+-sensitive dyestuff (Fluo-4) in a fluorescent imaging plate reader (FLIPR). The figure in % activation is based on the Ca^2+ signal after addition of Lys-Des-Arg^9-bradykinin (0.5 nM) or Des-Arg^9-bradykinin (100 nM). Antagonists lead to a suppression of the Ca^2+ inflow after addition of the agonist. % inhibition compared with the maximum achievable inhibition is stated.
The agonistic or antagonistic action of substances can be determined on the bradykinin 1 receptor (B1R) of the human and rat species with the following assay. In accordance with this assay, the Ca^2+ inflow through the channel is quantified with the aid of a Ca^2+-sensitive dyestuff (type Fluo-4, Molecular Probes Europe BV, Leiden, Holland) in a fluorescent imaging plate reader (FLIPR, Molecular Devices, Sunnyvale, USA).
Chinese hamster ovary cells (CHO K1 cells) transfected stably with the human B1R gene (hB1R cells) or the B1R gene of the rat (rB1R cells) are used. For functional studies, these cells are plated out on black 96-well plates with a clear base (BD Biosciences, Heidelberg, Germany or Greiner, Frickenhausen, Germany) in a density of 20,000-35,000 cells/well. The cells are left overnight at 37° C. and 5% CO2 in culture medium (hB1R cells: Nutrient Mixture Ham's F12, Gibco Invitrogen GmbH, Karlsruhe, Germany or DMEM, Sigma-Aldrich, Taufkirchen, Germany; rB1R cells: D-MEM/F12, Gibco Invitrogen GmbH, Karlsruhe, Germany) with 10 vol. % FBS (foetal bovine serum, Gibco Invitrogen GmbH, Karlsruhe, Germany or PAN Biotech GmbH, Aidenbach, Germany). On the following day, the cells are loaded for 60 min at 37° C. with 2.13 μM Fluo-4 (Molecular Probes Europe BV, Leiden, Holland) in HBSS buffer (Hank's buffered saline solution, Gibco Invitrogen GmbH, Karlsruhe, Germany) with 2.5 mM probenecid (Sigma-Aldrich, Taufkirchen, Germany) and 10 mM HEPES (Sigma-Aldrich, Taufkirchen, Germany). The plates are then washed 2× with HBSS buffer, and HBSS buffer which additionally contains 0.1% BSA (bovine serum albumin; Sigma-Aldrich, Taufkirchen, Germany), 5.6 mM glucose and 0.05% gelatine (Merck KgaA, Darmstadt, Germany) is added. After a further incubation of 20 minutes at room temperature, the plates are inserted into the FLIPR for the Ca^2+ measurement.
Alternatively, the plates are washed with buffer A (15 mM HEPES, 80 mM NaCl, 5 mM KCl, 1.2 mM CaCl2, 0.7 mM MgSO4, 2 g/l glucose, 2.5 mM probenecid), buffer A is added and the plates are loaded with 2.5 μM Fluo-4 and 0.025% Pluronic F127 (Sigma-Aldrich, Taufkirchen, Germany). Thereafter, the cells are washed 2× with buffer A and incubated for 30 minutes with buffer A, which additionally contains 0.05% BSA and 0.05% gelatine, at room temperature and thereafter inserted into the FLIPR for the Ca^2+ measurement. The Ca^2+-dependent fluorescence is measured here before and after addition of substances (λex=488 nm, λem=540 nm). Quantification is by measurement of the highest fluorescence intensity (FC, fluorescence counts) over time.
The FLIPR protocol consists of 2 additions of substance. Test substances (10 μM) are first pipetted on to the cells and the Ca^2+ inflow is compared with the control (hB1R: Lys-Des-Arg^9-bradykinin >=50 nM; rB1R: Des-Arg^9-bradykinin 10 μM). This gives the figure in % activation based on the Ca^2+ signal after addition of Lys-Des-Arg^9-bradykinin (>=50 nM) or Des-Arg^9-bradykinin (10 μM). After incubation for 10-20 minutes, Lys-Des-Arg^9-bradykinin (hB1R) or Des-Arg^9-bradykinin (rB1R) in the concentration of the EC80 is applied and the inflow of Ca^2+ is likewise determined. Antagonists lead to a suppression of the Ca^2+ inflow. % inhibition compared with the maximum achievable inhibition is calculated. In order to determine the IC50 value, the substances are added in various concentrations. […]

SMILES	inhibition at 10 µM
O=C(COCC1COc2ccccc2N1S(=O)(=O)c1ccccc1C(F)(F)F)N1CCc2[nH]cnc2C1c1ccccc1 (stereo not shown) [Example 94, 1-(4-Phenyl-4,5,6,7-tetrahydro-1H-imidazo[4,5-c]pyridin-5-yl)-2-[[4-[[2-(trifluoromethyl)-phenyl]sulfonyl]-3,4-dihydro-2H-[1,4]benzoxazin-3-yl]-methoxy]-ethanone]	36%
COc1cc(C)c(S(=O)(=O)N2c3ccccc3OCC2COCC(=O)N2CCc3[nH]cnc3C2c2ccccc2)c(C)c1 (stereo not shown) [Example 92, 2-[[4-[(4-Methoxy-2,6-dimethyl-phenyl)sulfonyl]-3,4-dihydro-2H-[1,4]benzoxazin-3-yl]-methoxy]-1-(4-phenyl-4,5,6,7-tetrahydro-1H-imidazo[4,5-c]pyridin-5-yl)-ethanone]	94%
COc1cc(C)c(S(=O)(=O)N(C)CCOCC(=O)N2CCc3sc(CN4CCN(C)CC4)cc3C2)c(C)c1C [Example 95, 4-Methoxy-N,2,3,6-tetramethyl-N-[2-[2-[2-[(4-methyl-piperazin-1-yl)-methyl]-4,5,6,7-tetrahydro-thieno[3,2-c]pyridin-5-yl]-2-oxo-ethoxy]-ethyl]-benzenesulfonic acid amide]	99%
Cc1cccc(Cl)c1S(=O)(=O)N1CCCCC1CCCC(=O)N1CCc2[nH]cnc2C1c1ccccc1 (stereo not shown) [Example 69, 4-[1-[(2-Chloro-6-methyl-phenyl)sulfonyl]-piperidin-2-yl]-1-(4-phenyl-4,5,6,7-tetrahydro-1H-imidazo[4,5-c]pyridin-5-yl)-butan-1-one]	64%
CN1CCN(Cc2cc3c(s2)CCN(C(=O)CCCC2CCCCN2S(=O)(=O)c2ccccc2C(F)(F)F)C3)CC1 (stereo not shown) [Example 87, 1-[2-[(4-Methyl-piperazin-1-yl)-methyl]-4,5,6,7-tetrahydro-thieno[3,2-c]pyridin-5-yl]-4-[1-[[2-(trifluoromethyl)-phenyl]sulfonyl]-piperidin-2-yl]-butan-1-one]	103%
O=C(COCC1CCCCN1S(=O)(=O)c1ccccc1C(F)(F)F)N1CCc2[nH]cnc2C1c1ccccc1 (stereo not shown) [Example 98, 1-(4-Phenyl-4,5,6,7-tetrahydro-1H-imidazo[4,5-c]pyridin-5-yl)-2-[[1-[[2-(trifluoromethyl)-phenyl]sulfonyl]-piperidin-2-yl]-methoxy]-ethanone]	98%
COc1cc(C)c(S(=O)(=O)N2CCCCC2COCCC(=O)N2CCc3[nH]cnc3C2c2ccccc2)c(C)c1 (stereo not shown) [Example 100, 3-[[1-[(4-Methoxy-2,6-dimethyl-phenyl)sulfonyl]-piperidin-2-yl]-methoxy]-1-(4-phenyl-4,5,6,7-tetrahydro-1H-imidazo[4,5-c]pyridin-5-yl)-propan-1-one]	101%
COc1cc(C)c(S(=O)(=O)N(CCOCC(=O)N2CCc3[nH]cnc3C2c2ccccc2)c2ccccc2)c(C)c1 (stereo not shown) [Example 84, 4-Methoxy-2,6-Dimethyl-N-[2-[2-oxo-2-(4-phenyl-4,5,6,7-tetrahydro-1H-imidazo[4,5-c]pyridin-5-yl)-ethoxy]-ethyl]-N-phenyl-benzenesulfonic acid amide]	97%
COc1cc(C)c(S(=O)(=O)N(CCOCC(=O)N2CCc3sc(CN4CCN(C)CC4)cc3C2)Cc2ccc3c(c2)OCOC3)c(C)c1 [Example 78, N-(4H-[1,3]Benzodioxin-7-yl-methyl)-4-methoxy-2,6-dimethyl-N-[2-[2-[2-[(4-methyl-piperazin-1-yl)-methyl]-4,5,6,7-tetrahydro-thieno[3,2-c]pyridin-5-yl]-2-oxo-ethoxy]-ethyl]-benzenesulfonic acid amide]	98%
COc1cc(C)c(S(=O)(=O)N2c3ccccc3CCC2COCC(=O)N2CCc3[nH]cnc3C2c2ccccc2)c(C)c1 (stereo not shown) [Example 86, 2-[[1-[(4-Methoxy-2,6-dimethyl-phenyl)sulfonyl]-1,2,3,4-tetrahydro-quinolin-2-yl]-methoxy]-1-(4-phenyl-4,5,6,7-tetrahydro-1H-imidazo[4,5-c]pyridin-5-yl)-ethanone]	96%
CN1CCN(Cc2cc3c(s2)CCN(C(=O)COCC2CCCCN2S(=O)(=O)c2ccccc2C(F)(F)F)C3)CC1 (stereo not shown) [Example 97, 1-[2-[(4-Methyl-piperazin-1-yl)-methyl]-4,5,6,7-tetrahydro-thieno[3,2-c]pyridin-5-yl]-2-[[1-[[2-(trifluoromethyl)-phenyl]sulfonyl]-piperidin-2-yl]-methoxy]-ethanone]	96%
COc1cc(C)c(S(=O)(=O)N2CCCCC2COCCC(=O)N2CCc3sc(CN4CCN(C)CC4)cc3C2)c(C)c1 (stereo not shown) [Example 99, 3-[[1-[(4-Methoxy-2,6-dimethyl-phenyl)sulfonyl]-piperidin-2-yl]-methoxy]-1-[2-[(4-methyl-piperazin-1-yl)-methyl]-4,5,6,7-tetrahydro-thieno[3,2-c]pyridin-5-yl]-propan-1-one]	98%
O=C(CCCC1CCCCN1S(=O)(=O)c1ccccc1C(F)(F)F)N1CCc2[nH]cnc2C1c1ccccc1 (stereo not shown) [Example 88, 1-(4-Phenyl-4,5,6,7-tetrahydro-1H-imidazo[4,5-c]pyridin-5-yl)-4-[1-[[2-(trifluoromethyl)-phenyl]sulfonyl]-piperidin-2-yl]-butan-1-one]	65%
COc1cc(C)c(S(=O)(=O)N(CCOCC(=O)N2CCc3sc(CN4CCN(C)CC4)cc3C2)Cc2ccccc2)c(C)c1 [Example 81, N-Benzyl-4-Methoxy-2,6-dimethyl-N-[2-[2-[2-[(4-methyl-piperazin-1-yl)-methyl]-4,5,6,7-tetrahydro-thieno[3,2-c]pyridin-5-yl]-2-oxo-ethoxy]-ethyl]-benzenesulfonic acid amide]	102%
Cc1cc(S(=O)(=O)N2CCCCC2CCC(=O)N2CCc3onc(C(=O)N4CCCCC4)c3C2)c(C)cc1Cl (stereo not shown) [Example 04, 3-(1-(4-chloro-2,5-dimethylphenylsulfonyl)piperidin-2-yl)-1-(3-(piperidine-1-carbonyl)-6,7-dihydroisoxazolo[4,5-c]pyridin-5(4H)-yl)propan-1-one]	56%
COc1cc(C)c(S(=O)(=O)N(CCOCC(=O)N2CCc3sc(CN4CCN(C)CC4)cc3C2)c2ccccc2)c(C)c1 [Example 83, 4-Methoxy-2,6-Dimethyl-N-[2-[2-[2-[(4-methyl-piperazin-1-yl)-methyl]-4,5,6,7-tetrahydro-thieno[3,2-c]pyridin-5-yl]-2-oxo-ethoxy]-ethyl]-N-phenyl-benzenesulfonic acid amide]	101%

From patent publication US8268814B2, “Substituted sulfonamide compounds” (Gruenenthal GmbH, priority 2008, dated 2012)
